Measurements taken from US9993494B2, “Compositions and methods for treating fibrotic disease” (eFFECTOR Therapeutics, Inc., priority 2014, dated 2018).

Tested on: normal human lung fibroblasts
Assay: Ribosomal profiling: translational efficiency in TGFβ-treated fibroblasts
Type: cell-based
Description: Ribosomal profiling allows for measurement of changes in transcription and translation on a genome-wide basis accompanying TGFβ-dependent transformation of fibroblasts to myofibroblasts. Ribosomal profiles of the TGFβ-treated fibroblasts from Example 1 (about 6×10^6 cells/10 cm plate) were prepared and analyzed for changes in translational efficiencies with respect to potential disease-associated cellular changes accompanying this TGFβ-induced transformation.
Briefly, cells were washed with cold PBS supplemented with cycloheximide and lysed with 1× mammalian cell lysis buffer for 10 minutes on ice. Lysates were clarified by centrifugation for 10 minutes at 14,000 rpm and supernatants were collected. Cell lysates were processed to generate ribosomal protected fragments and total mRNA according to the instructions included with the ARTseq Ribosome Profiling Kit (Illumina, San Diego, Calif.). Sequencing of total RNA (RNA) and of ribosome-protected fragments of RNA (RPF) was carried out using RNA-Seq methodology according to the manufacturer's instructions (Illumina). To analyze the ribosomal profiles, RNA-Seq reads were processed with tools from the FASTX-Toolkit (fastq_quality_trimmer, fastx_clipper and fastx_trimmer). Unprocessed and processed reads were evaluated for a variety of quality measures using FastQC, and processed reads were mapped to the human genome using TopHat (see, e.g., Trapnell et al., Bioinformatics 25:1105, 2009). Gene-by-gene assessment of the number of fragments strictly and uniquely mapping to the coding region of each gene was conducted using HTSeq-count, a component of the HTSeq package. […] Genes with low counts in either RPF or RNA were excluded from differential analyses. Pathway and network analyses of differential data were conducted using Ingenuity Pathway Analysis (IPA).

Q: What does the source list for TGFβ?
A: Log2 TE KIAA0408 (ENSG00000189367, 5 replicates): −1.283; Log2 TE ZBTB44 (ENSG00000196323, 5 replicates): −1.222; Log2 TE NACA (ENSG00000196531, 5 replicates): 1.083; change in translational profile of NACA caused by TGFβ (ENSG00000196531, Control vs. TGFβ): E (E = <1.5 to 2.5); Log2 TE ADH1B (ENSG00000196616, 5 replicates): −2.795; Log2 TE TOMM7 (ENSG00000196683, 5 replicates): 1.126; change in translational profile of LAMB3 caused by TGFβ (ENSG00000196878, Control vs. TGFβ): D (D = <1.0 to 1.5); Log2 TE PCBP2 (ENSG00000197111, 5 replicates): 1.293; change in translational profile of PCBP2 caused by TGFβ (ENSG00000197111, Control vs. TGFβ): E (E = <1.5 to 2.5); Log2 TE MAP3K5 (ENSG00000197442, 5 replicates): −2.0153; change in translational profile of MAP3K5 caused by TGFβ (ENSG00000197442, Control vs. TGFβ): B (B = <−1.5 to −2.5); Log2 TE RPS26 (ENSG00000197728, 5 replicates): 1.09; Log2 TE RPL37A (ENSG00000197756, 5 replicates): 2.029; change in translational profile of RPL37A caused by TGFβ (ENSG00000197756, Control vs. TGFβ): E (E = <1.5 to 2.5); Log2 TE RPL12 (ENSG00000197958, 5 replicates): 1.878; change in translational profile of RPL12 caused by TGFβ (ENSG00000197958, Control vs. TGFβ): E (E = <1.5 to 2.5); Log2 TE DNM3 (ENSG00000197959, 5 replicates): −1.161; Log2 TE RPS4X (ENSG00000198034, 5 replicates): 1.534; Log2 TE LPAR1 (ENSG00000198121, 5 replicates): −1.448; change in translational profile of LPAR1 caused by TGFβ (ENSG00000198121, Control vs. TGFβ): C (C = <−1.0 to −1.5); Log2 TE ZNF607 (ENSG00000198182, 5 replicates): −1.108; Log2 TE RPL23A (ENSG00000198242, 5 replicates): 1.395; change in translational profile of RPL23A caused by TGFβ (ENSG00000198242, Control vs. TGFβ): E (E = <1.5 to 2.5); Log2 TE TPM2 (ENSG00000198467, 5 replicates): 1.077; change in translational profile of PLN caused by TGFβ (ENSG00000198523, Control vs. TGFβ): F (F = >2.5); Log2 TE RPL10A (ENSG00000198755, 5 replicates): 1.51; change in translational profile of RPL10A caused by TGFβ (ENSG00000198755, Control vs. TGFβ): E (E = <1.5 to 2.5); Log2 TE CES1 (ENSG00000198848, 5 replicates): 1.084; change in translational profile of CES1 caused by TGFβ (ENSG00000198848, Control vs. TGFβ): E (E = <1.5 to 2.5); Log2 TE RPL39 (ENSG00000198918, 5 replicates): 1.536; change in translational profile of RPL39 caused by TGFβ (ENSG00000198918, Control vs. TGFβ): E (E = <1.5 to 2.5); Log2 TE GPRASP1 (ENSG00000198932, 5 replicates): −1.239; Log2 TE RORB (ENSG00000198963, 5 replicates): −1.766; Log2 TE CARD16 (ENSG00000204397, 5 replicates): −1.076; change in translational profile of CARD16 caused by TGFβ (ENSG00000204397, Control vs. TGFβ): B (B = <−1.5 to −2.5); Log2 TE MICA (ENSG00000204520, 5 replicates): 1.143; change in translational profile of MICA caused by TGFβ (ENSG00000204520, Control vs. TGFβ): E (E = <1.5 to 2.5); Log2 TE GNB2L1 (ENSG00000204628, 5 replicates): 1.732; change in translational profile of GNB2L1 caused by TGFβ (ENSG00000204628, Control vs. TGFβ): E (E = <1.5 to 2.5); Log2 TE RPS29 (ENSG00000213741, 5 replicates): 1.571; Log2 TE RPL17 (ENSG00000215472, 5 replicates): 1.299; change in translational profile of RPL17 caused by TGFβ (ENSG00000215472, Control vs. TGFβ): E (E = <1.5 to 2.5); Log2 TE UBA52 (ENSG00000221983, 5 replicates): 1.125; Log2 TE BTBD19 (ENSG00000222009, 5 replicates): 1.524; Log2 TE RPL41 (ENSG00000229117, 5 replicates): 1.474; change in translational profile of RPL41 caused by TGFβ (ENSG00000229117, Control vs. TGFβ): E (E = <1.5 to 2.5); Log2 TE RPS18 (ENSG00000231500, 5 replicates): 2.003; Log2 TE C17orf108 (ENSG00000232859, 5 replicates): −1.329; Log2 TE RPS28 (ENSG00000233927, 5 replicates): 1.937; Log2 TE ARPC1A (ENSG00000241685, 5 replicates): 1.288; change in translational profile of ARPC1A caused by TGFβ (ENSG00000241685, Control vs. TGFβ): D (D = <1.0 to 1.5); Log2 TE IFITM10 (ENSG00000244242, 5 replicates): −1.299; Log2 TE FMN1 (ENSG00000248905, 5 replicates): −1.906; Log2 TE CHCHD10 (ENSG00000250479, 5 replicates): 2.519; change in translational profile of CHCHD10 caused by TGFβ (ENSG00000250479, Control vs. TGFβ): F (F = >2.5); Log2 TE SEPP1 (ENSG00000250722, 5 replicates): −1.035; Log2 TE EEF1G (ENSG00000254772, 5 replicates): 1.551; change in translational profile of EEF1G caused by TGFβ (ENSG00000254772, Control vs. TGFβ): E (E = <1.5 to 2.5); Log2 TE TEN1 (ENSG00000257949, 5 replicates): 1.361
